PMC9403987 (Frontiers in Oncology, 2022)

Columns and labels:
COLO 205 = assay: Subcutaneous COLO 205 colorectal cancer xenograft; type: in vivo, BALB/c nude mice; details: 26 days, measured day 25
Protocol: (§1) The efficacy of GLR2007 was evaluated in human GBM and breast cancer orthotopic cell-line-derived xenografts in NOD/SCID mice (Shanghai Lingchang Biotechnology Co. Ltd, Shanghai, China) and BALB/c nude mice (Shanghai Sino-British SIPPR/BK Laboratory Animal Co. Ltd, Shanghai, China), and human lung, colorectal, and liver cancer subcutaneous cell-line-derived xenografts in BALB/c nude mice (Nanjing University National Resource Center, Nanjing, China, or Beijing Anikeeper Biotech Co., Beijing, China). Mice were maintained in humidity- and temperature-controlled conditions with food and water available ad libitum. For subcutaneous models, female BALB/c nude mice were inoculated at 4–8 weeks old with 3×10^6–1×10^7 tumor cells (see Table 1 for xenograft model cell types) in the right flank for tumor development. Randomization was performed when the mean tumor volume reached 118–171 mm^3.

MHCC97L = assay: Cell proliferation assay; type: cell-based; details: Homo sapiens, liver, hepatocellular carcinoma, 72 hours
BRL-3a = assay: Cell proliferation assay; type: cell-based, Rattus norvegicus; details: liver, normal, 72 hours
Protocol: (§2) To quantify cell proliferation, either the nuclei of live cells were counted following staining with 4’,6-diamidino-2-phenylindole (DAPI; Sigma-Aldrich, Burlington, MA, USA), or metabolically active cells were detected using a CellTiter-Glo assay (Promega Corporation, Madison, WI, USA). Cells from a range of human and mammalian tumor cell lines (American Type Culture Collection, Manassas, VA, USA) were seeded at 4000 cells per well in 100 μL of culture medium in a 96-well plate and incubated overnight at 37°C with 5% CO2. […] In the DAPI staining method, cells were washed using 1× phosphate-buffered saline (PBS; Gibco Thermo Fisher Scientific, Waltham, MA, USA), fixed with 4% formaldehyde, permeabilized with 0.2% Triton X-100 (Sigma-Aldrich), washed again, and stained with 1 μg/mL DAPI to visualize cell nuclei. Cells were washed with 1× PBS three times, and 100 μL 1× PBS was added to each well. Plates were scanned using an IN Cell Analyzer 2200 (GE Healthcare Life Sciences, Chicago, IL, USA) and the number of cells per well was recorded. In the CellTiter-Glo assay, 60 μL of CellTiter-Glo luminescent solution was added to each well after incubation with the test compounds, and the assay plate was scanned using a Tecan Infinite M1000 PRO microplate reader (Tecan Group AG, Männedorf, Switzerland) to record luminescent signals.

LI1088 = assay: Subcutaneous LI1088 liver cancer xenograft; type: in vivo, BALB/c nude mice; details: 25 mg/kg daily oral, 28 days, measured day 25
Protocol: as §1

U87-MG [1] = tested on: U87-MG; set-up: method as in PMID 26149830; details: orthotopic U87-MG GBM rat xenografts; cited from earlier work
JHH-7 = assay: Cell proliferation assay; type: cell-based, Homo sapiens; details: JHH-7, liver, hepatocellular carcinoma, 72 hours
How it was run: (§3)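 Cells plated at 4000 per well; overnight incubation at 37°C, 5% CO2. Compound treatment followed. Cells then fixed (4% formaldehyde), permeabilized (0.2% Triton X-100) and stained with 1 μg/mL DAPI for imaging-based nuclear counts, or lysed with CellTiter-Glo reagent for luminescence.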

MOG-G-UVW = assay: Cell proliferation assay; type: cell-based, Homo sapiens; details: brain, grade III astrocytoma, 72 hours
How it was run: as §3

MHCC97H = assay: Cell proliferation assay; type: cell-based, Homo sapiens; details: liver, hepatocellular carcinoma, 72 hours
How it was run: as §3

NCI-H520 = assay: Cell proliferation assay; type: cell-based, Homo sapiens; details: NCI-H520, lung carcinoma, 72 hours
How it was run: as §3

NCI-H1155 = assay: Cell proliferation assay; type: cell-based, Homo sapiens; details: NCI-H1155, lung, NSCLC, 72 hours
How it was run: as §3

CDK4–cyclin D1 = biological target: T1, CDK4–cyclin D1 (Homo sapiens, UniProt P11802); assay: LANCE Ultra TR-FRET enzymatic profiling assay; type: biochemical
T1 construct: purchased Invitrogen
Protocol: Results were calculated as half-maximal inhibitory concentration (IC50) and inhibition constant (K i). IC50 and K i values were determined using the XLfit 205 model (ID Business Solutions Ltd, Guildford, UK) curve-fitting add-on for Microsoft Excel (Microsoft Corporation, Redmond, WA, USA).

U87-MG [2] = details: cell line U87-MG; cited from earlier work
[3] = Excretion of radioactivity in intact rats; type: in vivo, Sprague Dawley rats
Protocol: To investigate the degree to which GLR2007 penetrated organs and tissues, and the levels of excretion of the compound, rats were dosed with radiolabeled GLR2007 and whole-body autoradiography was performed. Sprague Dawley rats (Vital River Laboratory Animal Technology Co., Beijing, China; N=38, female n=19; 8–11 weeks old) were maintained in humidity- and temperature-controlled conditions on a 12-hour light/dark cycle, with food (certified rat diet; Jiangsu Xietong Pharmaceutical Biological Engineering Co., Ltd, Jiangsu, China) and water available ad libitum. […] Urine, feces, and cage rinse/wash up to 168 hours after treatment were collected from six intact rats (three male, three female); bile, urine, feces, and cage rinse/wash up to 72 hours after treatment were collected from eight bile duct cannulated (BDC) rats (four male, four female). Heart, lung, liver, spleen, kidneys, whole brain, stomach tract wall, intestinal tract wall, skeletal muscle, body fat, reproductive organs (uterus and ovary for female rats, testis and epididymis for male rats) were collected at 2, 6, 24, and 72 hours after treatment (three male, three female per time point). The total radioactivity (TRA) of plasma, bile, urine, and cage rinse/wash samples was directly analyzed by liquid scintillation counting. Fecal and tissue homogenates and blood were combusted using a PerkinElmer Oxidizer (PerkinElmer Inc.), and the generated [^14C]CO2 was captured in ^14C scintillation cocktail (Shimadzu Corporation, Kyoto, Japan), followed by analysis using a PerkinElmer Liquid Scintillation Counter (PerkinElmer Inc.). The TRA levels determined in bile, urine, feces, and cage rinse/wash were used to calculate the percentage of the administered dose excreted. Mean TRA values of whole brain and plasma at 2, 6, 24, and 72 hours were used to calculate the area under concentration–time curve from time zero to 72 hours (AUC0–72), using a noncompartmental model in Phoenix WinNonlin v6.3 software (Certara, Princeton, NJ, USA).

CT26.WT = assay: Cell proliferation assay; type: cell-based, Mus musculus; details: colorectal carcinoma, 72 hours
Protocol: as §2

P-glycoprotein = details: cited from earlier work
CDK6–cyclin D1 = biological target: T2, CDK6–cyclin D1 (Homo sapiens, UniProt Q00534); assay: LANCE Ultra TR-FRET enzymatic profiling assay; type: biochemical
T2 construct: purchased Invitrogen
Protocol: Results were calculated as half-maximal inhibitory concentration (IC50) and inhibition constant (K i).

T2 sequence (Q00534 whole entry): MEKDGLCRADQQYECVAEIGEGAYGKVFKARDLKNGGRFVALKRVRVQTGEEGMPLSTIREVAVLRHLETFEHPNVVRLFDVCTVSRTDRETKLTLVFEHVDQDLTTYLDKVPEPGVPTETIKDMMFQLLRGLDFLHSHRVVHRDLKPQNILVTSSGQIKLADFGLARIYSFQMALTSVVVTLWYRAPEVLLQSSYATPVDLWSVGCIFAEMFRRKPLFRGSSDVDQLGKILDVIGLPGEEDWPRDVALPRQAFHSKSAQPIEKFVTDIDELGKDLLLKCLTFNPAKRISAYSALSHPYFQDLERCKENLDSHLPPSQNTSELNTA
T2 sequence (P24385 whole entry partner): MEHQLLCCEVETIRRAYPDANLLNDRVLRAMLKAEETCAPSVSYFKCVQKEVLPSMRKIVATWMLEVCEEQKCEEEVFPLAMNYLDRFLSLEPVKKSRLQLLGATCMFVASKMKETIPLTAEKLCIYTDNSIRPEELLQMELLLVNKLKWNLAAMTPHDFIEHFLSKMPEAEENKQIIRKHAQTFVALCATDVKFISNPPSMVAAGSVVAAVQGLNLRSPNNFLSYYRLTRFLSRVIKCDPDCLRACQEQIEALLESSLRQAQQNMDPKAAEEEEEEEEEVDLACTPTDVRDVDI
T1 sequence (P11802 whole entry): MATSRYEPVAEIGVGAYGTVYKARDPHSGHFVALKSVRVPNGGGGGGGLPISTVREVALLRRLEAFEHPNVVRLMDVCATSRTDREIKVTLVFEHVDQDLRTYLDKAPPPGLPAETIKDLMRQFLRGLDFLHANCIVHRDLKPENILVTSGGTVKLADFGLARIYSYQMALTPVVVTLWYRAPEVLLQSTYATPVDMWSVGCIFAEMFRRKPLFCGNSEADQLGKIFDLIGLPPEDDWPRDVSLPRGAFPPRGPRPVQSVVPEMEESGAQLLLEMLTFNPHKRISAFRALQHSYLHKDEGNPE
T1 sequence (P24385 whole entry partner): as the sequence (P24385 whole entry partner) above

Q: Which “TGI (%)” value (COLO 205; 25 mg/kg daily oral) does the source give for CCN1CCN(Cc2ccc(Nc3ncc(F)c(-c4cc(F)c5nc(C)n(C(C)C)c5c4)n3)nc2)CC1 [Abemaciclib, abemaciclib, reference compound] here?
A: 57.7%

Q: What about the IC50 (MHCC97L) of the same molecule?
A: 236 nM

Q: What about the IC50 (BRL-3a; Rattus norvegicus) of the same molecule?
A: 10000 nM

Q: And the “TGI (%)” value (LI1088)?
A: 22.4%

Q: And the “Increase in survival time compared to vehicle control” value (U87-MG [1])?
A: 37.4%

Q: What about the IC50 (JHH-7; Homo sapiens, JHH7) of the same molecule?
A: 1170 nM

Q: What about the IC50 (MOG-G-UVW; Homo sapiens) of the same molecule?
A: 72 nM

Q: What about the IC50 (MHCC97H; Homo sapiens) of the same molecule?
A: 137 nM

Q: And the IC50 (NCI-H520; Homo sapiens)?
A: 364 nM

Q: What about the IC50 (NCI-H1155; Homo sapiens) of the same molecule?
A: 2410 nM

Q: Which results are given for CC1=Nc2c(F)cc(-c3nc(Nc4ccc(C5CCN(C)CC5)cn4)ncc3F)cc2C12CCCC2 [GLR2007]?
A: Ki (CDK4–cyclin D1; CDK4/CyD1): < 0.1 nM; IC50 (CDK4–cyclin D1; CDK4/CyD1, 11 concentrations in duplicates): 0.22 nM; TGI (%) (COLO 205; 5 mg/kg daily oral): 42.6%; TGI (%) (COLO 205; 25 mg/kg daily oral): 72.2%; Cell cycle effect (U87-MG [2]): induce G1 arrest; IC50 (BRL-3a): 1870 nM; TGI (%) (LI1088): 57.7%; Radioactivity excreted via feces ([3]; single oral 6 mg/100 μCi/kg): 84.10%; Dose recovered ([3]; within 168 hours, single oral 6 mg/100 μCi/kg): 95.5%; Dose recovered ([3]; within the first 48 hours): 74.3%; IC50 (JHH-7): 578 nM; IC50 (MOG-G-UVW): 43 nM; IC50 (MHCC97H): 66 nM; IC50 (NCI-H520): 241 nM; IC50 (NCI-H1155): 1820 nM; IC50 (CT26.WT): 2020 nM; Substrate of efflux transporter P-glycoprotein (P-glycoprotein): not a substrate; Ki (CDK6–cyclin D1; CDK6/CyD1): < 0.08 nM; IC50 (CDK6–cyclin D1; CDK6/CyD1, 11 concentrations in duplicates): 0.53 nM
